Assay results as given in patent publication US20080194590A1, “4-Piperazinylthieno [2,3-D] Pyrimidine Compounds as Platelet Aggregation Inhibitors” (Pfizer Inc, priority 2005, published 2008).
Values joined by “and” are separate entries in the source; they are usually repeats but may differ in a detail not shown here. Identical values can stand only once.

Assays:
[1] = molecular target: T1, P2Y12 receptor (Homo sapiens, UniProt Q9H244); test: Human P2Y12 recombinant cell membrane binding assay with 33P 2MeS-ADP (Assay 3); design: expressed in transfected cells; host or cells: HEK cells; details: highest concentration tested 1 μM; read-out: [33P]-2MeS-ADP Binding to Recombinant Human P2Y12 Membranes (Assay 3) % Inhibition
[2] = molecular target: T1, P2Y12 receptor; test: as above; design: expressed in transfected cells; host or cells: HEK cells; details: for IC50 / Ki: HEK cell membranes expressing P2Y12, multiple lines = multiple runs; for [33P]-2MeS-ADP Binding to Recombinant Human P2Y12 Membranes (Assay 3) % Inhibition / inhibition at 10 µM: highest concentration tested 10 μM; for inhibition at 10 µM: read-out: [33P]-2MeS-ADP Binding to Recombinant Human P2Y12 Membranes (Assay 3) % Inhibition
Experimental: 3. Human P2Y12 Recombinant Cell Membrane Binding Assay with ^33P 2MeS-ADP.
The ability of a test compound to bind to the P2Y12 receptor was evaluated in a recombinant cell membrane binding assay. In this competitive binding assay, the test compound competed against a radiolabelled agonist for binding to the P2Y12 receptor, expressed on the cell membrane. Inhibition of binding of the labeled material was measured and correlated to the amount and potency of the test compound. Data from this assay are presented in Table F. This binding assay is a modification of the procedure in Takasaki, J. et. al, Mol. Pharmacol., 2001, Vol. 60, pg. 432.
HEK cells were transfected with the pDONR201P2Y12 vector and cultured in MEM with GlutaMAX I, Earle's salts, 25 mM HEPES (Gibco # 42360-032) containing 10% dialyzed FBS (Gibco # 26400-044), 100 μM nonessential amino acids (Gibco # 11140-050), 1 mM sodium pyruvate (Gibco # 11360-070), 0.05% geneticin (Gibco #10131-027), 3 μg/mL blasticidin (Fluka brand from Sigma # 15205), and 0.5 μg/mL puromycin (Sigma # P-8833).
Confluent cells were washed once with cold DPBS (Gibco # 14190-136). Fresh DPBS was added and the cells were scraped and centrifuged at 500×g for 5 minutes at 4° C. The cell pellets were resuspended in TEE buffer (25 mM Tris, 5 mM EDTA, 5 mM EGTA) containing 1 protease inhibitor cocktail tablet (Roche # 1 873 580) per 50 mL (called TEE+Complete) and can be flash frozen at this point.
In one embodiment, frozen cell pellets were used to prepare the membranes. In that embodiment, the frozen cell pellets were thawed on ice. In another embodiment, cell pellets may be used without flash freezing before moving on to the next step.
Cell pellets were resuspended in TEE buffer+Complete and homogenized in a glass dounce for 12 strokes. The cell suspension was centrifuged at 500×g for 5 minutes at 4° C. The supernatant was saved and centrifuged at 20,000×g for 20 minutes at 4° C. This supernatant was discarded and the cell pellet resuspended in TEE buffer+Complete and homogenized in a glass dounce for 12 strokes. This suspension was centrifuged at 20,000×g for 20 minutes at 4° C. and the supernatant discarded. The pellet was resuspended in assay buffer (50 mM Tris, 100 mM NaCl, 1 mM EDTA) containing one protease inhibitor cocktail tablet per 50 mL, and can be flash frozen as 1 mL aliquots at this point.
Dry compounds were diluted as 10 mM DMSO stocks and tested in a seven-point, three-fold dilution series run in triplicate beginning at 10 μM, final concentration. A 1 mM DMSO intermediate stock was made in a dilution plate and from this the seven dilutions were made to 5× the final concentration in assay buffer containing 0.02% BSA.
To a polypropylene assay plate (Costar # 3365) the following were added: a) 30 μL of assay buffer containing one protease inhibitor cocktail tablet per 50 mL; b) 30 μL of 1 nM ^33P 2MeS-ADP made in assay buffer containing 0.02% BSA and 12.5 mg/mL ascorbic acid; 30 μL of cold 1.5 μM 2MeS-ADP for the positive control wells, or assay buffer containing 0.02% BSA and 12.5 mg/mL ascorbic acid for the negative control wells, or 5× drug dilution; and 60 μL of 1 ug/well membranes.
The plates were incubated at room temperature for 1 hour. The reaction was stopped using a cell harvester to transfer the reaction mixture onto GF/B UniFilter plates (Perkin Elmer # 6005177), and washed three times with wash buffer (50 mM Tris), filtering between each wash. The filter plates were dried for approximately 20 minutes in an oven at 50° C. Back seals were adhered to the filter plates and 25 uL of Microscint 20 scintillation fluid (Perkin Elmer # 6013621) were added. The filter plates were sealed, shaken for 30 minutes, and counted on a Top Count. Data were analyzed using a four-parameter curve fit with a fixed minimum and maximum experimentally defined as the average positive and negative controls on each plate, and with a hill slope equal to one.

[3] = molecular target: T1, P2Y12 receptor; test: Inhibition of [33P]2MeS-ADP binding to washed human platelet membranes (Assay 1); design: the P2Y12 receptor, which is found on the surface of platelets; tissue Interstate Blood bank, Memphis, Tenn; host or cells: human platelets from platelet rich plasma; details: for inhibition at 10 µM: highest concentration tested 10 μM; for IC50: washed human platelet membranes
Experimental: 1. Inhibition of [^33P]2MeS-ADP Binding to Washed Human Platelet Membranes. The ability of a test compound to bind to the P2Y12 receptor was evaluated in a platelet membrane binding assay. In this competitive binding assay, the test compound competed against a radiolabelled agonist for binding to the P2Y12 receptor, which is found on the surface of platelets. Inhibition of binding of the labeled material was measured and correlated to the amount and potency of the test compound. Data from this assay are presented in Table F. Platelet rich plasma (“PRP”) was obtained from the Interstate Blood bank, Memphis, Tenn. Platelet rich plasma was prepared from blood units collected in ACD ((prepared by (1) combining: 2.5 g sodium citrate (Sigma S-4641); 1.5 g citric acid (Sigma C-0706); and, 2.0 g dextrose (Sigma G-7528); (2) bringing pH to 4.5; and (3) adding water to bring volume to 100 mL) and using the light spin protocol; this protocol involves centrifugation at room temperature for approximately 20 minutes at speeds up to 160×g. Platelet rich plasma is supplied in units of approximately 200 ml. Each unit is distributed into four 50 mL polypropylene conical tubes for centrifugation, Blood from each donor is maintained separately.
The 50 mL tubes were centrifuged for 15 minutes at 1100 rpm in Sorvall RT6000D (with H1000B rotor). Internal centrifuge temperature was maintained at approximately room temperature (22-24° C.). This spin pelleted cellular components remaining from the PRP preparation. The supernatant was decanted into fresh 50 mL tubes. To avoid carry over of cellular components following the room temperature centrifugation, approximately 5 mL of PRP was left in the tube and discarded. The tubes were capped and inverted 2-3 times and allowed to stand at room temperature for at least 15 minutes following inversion.
Optionally, a Coulter Counter may be used to count platelets from the resting samples during the resting phase. Normal human platelet counts are expected to range from 200,000 to 400,000 per μL of PRP supernatant.
The 50 mL tubes containing PRP supernatant were centrifuged for 15 minutes at 2300-2400 rpm to loosely pellet the platelets. The supernatant from this spin was decanted immediately into a clean cell culture bottle (Corning bottle) and saved in case further centrifugation was needed. The pellet of each tube was resuspended in 2-4 mL of Wash buffer (pH 6.5) (1 L prepared new daily—134 mM NaCl (Sigma S-5150); 3 mM KCl (Sigma P-9333); 1 mM CaCl2 (JT Baker 1311-01); 2 mM MgCl2 (Sigma M-2670); 5 mM glucose (EM 4074-2); 0.3 mM NaH2PO4 (Sigma S-9638)/12 mM NaHCO3 (J T Baker 3506-01); 5 mM HEPES pH 7.4 (Gibco 12379-012); 0.35% BSA (Sigma A-7906); 330 mg Heparin (bovine lung, Sigma H-4898); and 30 mL of ACD) by repeated gentle aspiration using disposable polypropylene sample pipettes.
Wash buffer (pH 6.5) was added to each tube to bring the volume to approximately 40 mL. Each tube was incubated for at least 15 minutes at 37° C.
The tubes were then centrifuged again for 15 minutes at 2300-2400 rpm to loosely pellet the platelets. The supernatant was decanted and discarded. The pellet was resuspended in 2-4 mL of Assay buffer (pH 7.4) (1 L volume—134 mM NaCl; 3 mM KCl; 1 mM CaCl2; 2 mM MgCl2; 5 mM glucose; 0.3 mM NaH2PO4/12 mM NaHCO3; 5 mM HEPES pH 7.4; and 0.35% BSA) by repeated aspiration using disposable polypropylene sample pipettes.
The pooled platelet preparation was counted using a Coulter Counter. The final concentration of platelets was brought to 1×10^6 per μL using Assay buffer pH 7.4. The platelets were rested for a minimum of 45 minutes at 37° C. before use in the assay.
In one embodiment, the compounds were tested in 96-well microtiter filterplates (Millipore Multiscreen-FB opaque plates, #MAFBNOB50). These plates were used in the assay and pre-wet with 50 μL of Assay buffer pH 7.4 then filtered through completely with a Millipore plate vacuum. […]

T1 sequence (Q9H244 whole entry): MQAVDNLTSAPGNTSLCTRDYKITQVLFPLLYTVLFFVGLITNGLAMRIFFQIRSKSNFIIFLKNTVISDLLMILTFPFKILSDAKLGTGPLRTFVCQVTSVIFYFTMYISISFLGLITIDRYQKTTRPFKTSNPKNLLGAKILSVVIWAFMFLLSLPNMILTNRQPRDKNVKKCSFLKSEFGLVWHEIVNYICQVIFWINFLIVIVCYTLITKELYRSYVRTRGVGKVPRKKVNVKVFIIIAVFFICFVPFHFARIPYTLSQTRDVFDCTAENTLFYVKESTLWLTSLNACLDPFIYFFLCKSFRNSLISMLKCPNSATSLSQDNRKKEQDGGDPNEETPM

inhibition at 1 µM [1] [%]	IC50 [2]	Ki [2]	[33P]-2MeS-ADP Binding to Recombinant Human P2Y12 Membranes (Assay 3) % Inhibition [2] [%]	inhibition at 10 µM [2] [%]	inhibition at 10 µM [3] [%]	IC50 [3] [µM]	Structure (SMILES)
89	68 nM and 50 nM and 132 nM	36 nM and 30 nM and 76 nM	93.19	97.3	–	–	CCc1cc2c(N3CCN(C(=O)c4cccc(-c5ccccc5)c4)CC3)nc(NC[C@H](O)CO)nc2s1 [Example 29, (2S)-3-({4-[4-(1,1′-biphenyl-3-ylcarbonyl)piperazin-1-yl]-6-ethylthieno[2,3-d]pyrimidin-2-yl}amino)propane-1,2-diol]
88	63 nM and 80 nM and 105 nM	33 nM and 50 nM and 61 nM	96.44	97.7	–	–	CCc1cc2c(N3CCN(C(=O)c4cccc(-c5ccccc5)c4)CC3)nc(NC[C@@H](O)CO)nc2s1 [Example 30, (2R)-3-({4-[4-(1,1′-biphenyl-3-ylcarbonyl)piperazin-1-yl]-6-ethylthieno[2,3-d]pyrimidin-2-yl}amino)propane-1,2-diol]
93	21 nM	12 nM	–	–	–	–	CCc1cc2c(N3CCN(C(=O)c4ccc(-c5ccccc5)cc4)CC3)nc(NC(CO)CO)nc2s1 [Example 31, 2-({4-[4-(1,1′-biphenyl-4-ylcarbonyl)piperazin-1-yl]-6-ethylthieno[2,3-d]pyrimidin-2-yl}amino)propane-1,3-diol]
51	1130 nM and 1190 nM and 905 nM	650 nM and 687 nM and 905 nM	82.93	76.7	–	–	CCc1cc2c(N3CCN(C(=O)Cc4ccccc4)CC3)nc(NCCO)nc2s1 [Example 11, 2-({6-Ethyl-4-[4-(phenylacetyl)piperazin-1-yl]thieno[2,3-d]pyrimidin-2-yl}amino)ethanol]
90	20 nM and 61 nM and 47 nM	10 nM and 35 nM and 27 nM	94.85	98.6	–	–	CCc1cc2c(N3CCN(C(=O)c4ccc(-c5ccccc5)cc4)CC3)nc(NC[C@H](O)CO)nc2s1 [Example 26, (2S)-3-({4-[4-(1,1′-biphenyl-4-ylcarbonyl)piperazin-1-yl]-6-ethylthieno[2,3-]pyrimidin-2-yl}amino)propane-1,2-diol]
–	–	–	–	–	44	> 10	CCc1cc2c(N3CCN(C(=O)Cc4ccccc4)CC3)nc(NCc3ccccc3)nc2s1 [Example 15, N-benzyl-6-ethyl-4-[4-(phenylacetyl)piperazin-1-yl]thieno[2,3-d]pyrimidin-2-amine]
–	–	–	–	–	45.6	> 10	CCc1cc2c(N3CCN(C(=O)Cc4ccccc4)CC3)nc(NCc3ccc(F)cc3)nc2s1 [Example 13, 6-Ethyl-N-(4-fluorobenzyl)-4-[4-(phenylacetyl)piperazin-1-yl]thieno[2,3-d]pyrimidin-2-amine]
92	10 nM and 48 nM and 43 nM	10 nM and 28 nM and 25 nM	93.86	100	–	–	CCc1cc2c(N3CCN(C(=O)c4ccc(-c5ccccc5)cc4)CC3)nc(NC[C@@H](O)CO)nc2s1 [Example 27, (2R)-3-({4-[4-(1,1′-biphenyl-4-ylcarbonyl)piperazin-1-yl]-6-ethylthieno[2,3-d]pyrimidin-2-yl}amino)propane-1,2-diol]
